Laboratory results: patent US20090264342A1, “COMPOSITIONS AND METHODS FOR ANTIBIOTIC POTENTIATION AND DRUG DISCOVERY” (priority 2006, published 2009)

Tests used:
E. coli MG1655 = assay: Hydroxyl radical formation (HPF dye, flow cytometry) in E. coli; type: cell-based; conditions: for hydroxyl radical formation: E. coli, 250 ng/mL norfloxacin, 5 μg/mL ampicillin, 5 μg/mL kanamycin, bacteriostatic drugs, 3 hours after addition
Protocol: (§1) Growth Conditions. In the experiments, the growth and survival of untreated exponential phase E. coli, or S. aureus, were compared to cultured treated with antibiotics at the above concentrations. E. coli cultures were treated with norfloxacin, kanamycin, ampicillin, rifamycin SV, chloramphenical, tetracycline, erythromycin, or spectinomycin, where appropriate, S. aureus cultures were treated with norfloxacin, vancomycin or chloramphenical, where appropriate.
Hydroxyl radical and DNA damage sensor experiments using the flow cytometer. To monitor the occurrence of DNA damage, the engineered DNA damage sensor was used, which responds to auto-cleavage of LexA by activating expression of gfpmut3b. All the drug treatments and the no-drug controls were collected with both the kanamycin- and ampicillin-resistant version of the plasmid, with the exception of the ampicillin treatment (kanamycin plasmid only) and the kanamycin treatment (ampicillin plasmid only). All data were collected using a Becton Dickinson FACSCalibur flow cytometer (Becton Dickinson, San Jose, Calif.) with a 488-nm argon laser and a 515- to 545-nm emission filter (FL1) at low flow rate. The following PMT voltage settings were used: E00 (FSC), 360 (SSC) and 700 (FL1). To detect hydroxyl radical formation, the fluorescent reporter dye, 3′-(p-hydroxyphenyl) fluorescein (HPF, Invitrogen, Carlsbad, Calif.) was used at a concentration of 5 μM (1:1000) dilution), which is oxidized by hydroxyl radicals with high specificity. The following PMT voltage settings were used: E00 (FSC), 360 (SSC) and 825 (FL 1). Calibrite beads (Becton Dickinson) were used for instrument calibration.
Flow data were processed and analyzed with MATLAB (MathWorks, Natick, Mass.) to construct figures. At least 50,000 cells were collected for each sample. In all experiments, cells were grown as described above. Samples were taken immediately before addition of drug (time zero), then every hour for 3 hours. At each timepoint, approximately […] were collected, washed once and resuspended in filtered 1×PBS, pH 7.2 (Fisher Scientific), and fluorescence was measured on the flow cytometer.
In the present study, the Applicants chose to investigate whether hydroxyl radical formation also contributes to antibiotic-induced cell death in bacteria. Using the dye hydroxyphenyl fluorescein, HPF, which is oxidized by hydroxyl radicals with high specificity, hydroxyl radical formation was first observed over a range of hydrogen peroxide concentrations known to induce hydroxyl radicals through the reduction of hydrogen peroxide by ferrous iron. In this manner, it was possible to establish the scale of hydroxyl radical formation detectable using this dye via flow cytometry.

wild-type E. coli = type: cell-based; conditions: norfloxacin, ampicillin or kanamycin treatment plus 2,2′-dipyridyl (500 μM)
Protocol: FIG. 36 is a set of 3 graphs showing the effect of iron chelation, hydroxyl radical quenching of iron-sulfur synthesis on the […] efficiency of bactericidal antibiotics. a,c,e, Log change in colony forming units per mL (CFU/mL, mean+/−standard deviation). Effect of addition of 500 μM 2,2′-dipyridyl or 150 mM thiourea to wildtype E. coli, and on an iron-sulfur cluster synthesis mutant, ΔiscS, on bactericidal drug efficacy and hydroxyl radical formation following exposure to a, 250 ng/mL norfloxacin (Nor), c, 5 μg/mL ampicillin (Amp), or e, 5 μg/mL kanamycin (Kan).
as §1
Application of iron chelators is an established means of blocking Fenton reaction-mediated hydroxyl radical formation by sequestering unbound iron. […]

Streptomyces pneumoniae = conditions: more active than ciprofloxacin against this pathogen; cited from earlier work
[1] = system: SOS response (LexA auto-cleavage) in E. coli; assay: SOS induction, LexA-controlled GFP DNA damage sensor; type: cell-based; conditions: 5 μg/mL Amp, 5 μg/mL Kan, 25 ng/mL Nor; 3 hours after addition
Protocol: FIG. 37 is a set of two graphs showing SOS induction in E. coli by bactericidal antibiotics. Activation of the SOS response was monitored using an engineered sensor construct that employs the LexA repressor for control of Green Fluorescent Protein (GFP) expression. Shown are representative GFP histogram measurements taken 3 hours after addition of a, bactericidal antibiotics (5 μg/mL Amp, 5 μg/mL Kan, 25 ng/mL Nor). b, Log change in CFU/mL of ΔrecA E. coli following exposure to 5 μg/mL Kanamycin (open diamonds), 25 ng/mL Norfloxacin (open triangles), and 5 μg/mL Ampicillin (open circles). For comparison, CFU/mL are also shown for widltype E. coli exposed to 5 μg/mL Kanamycin (diamonds), 25 ng/mL Norfloxacin (triangles), and 5 μg/mL Ampicillin (circles), as well as a lower concentration of norfloxacin in these experiments to highlight the significant increase in killing in a recA knockout.
DNA damage sensor construction. The DNA sensor construct with ampicillin resistance was described previously (D. J. Dwyer et al., “Superoxide and hydroxyl radicals contribute to gyrase inhibitor-mediated cell death in E. coli”, 2007 accepted by Mol. Syst. Biol., which is incorporated herein by reference in its entirety).
Hydroxyl radical and DNA damage sensor experiments using the flow cytometer. […]
Hydroxyl radical are extremely toxic, and will readily damage membrane lipids, proteins and DNA. […]

E. Coli RecA protein = target: T1, E. Coli RecA protein (Escherichia coli, UniProt P0A7G6); assay: RecA ATPase activity, in vitro luciferase assay; type: biochemical; conditions: luciferase assay screen
T1 construct: purchased New England Biolabs
Protocol: The assay measures the amount of ATPase (adenosine triphosphate (ATP)-adenosine diphosphate (ADP)) activity catalyzed by E. Coli RecA protein. In the assay, recA is incubated in reaction buffer with DNA, ATP and compounds of interest for a measured amount of time. The quantity of ATP remaining after the RecA reaction is quantitated using a subsequent luciferase assay. […] Details of the assay are provided below.
Materials. Kingase glo plus, adenosine triphosphate (ATP), Adenosine 5′-O-(3-thiotriphosphate), and 384 well plates, white were obtained from Fisher; and M13 mp18 Single-stranded DNA, RecA Protein and T4 Polynucleotide Kinase Reaction Buffer=PNK were obtained from New England Biolabs. PNK contained 70 mM Tris-CL pH 7.5, 10 mM MgCl2 and 5 mM DTT.
Assay Procedure. Final reaction mixture contains: 0.5 μL of M13 single stranded DNA (250 μg/mL); 1.0 μL of 10×PHK buffer; 0.25 μL of RecA (2 mg/mL); 0.25 μL of 1 mM ATP; 0.25 μL of test compound in DMSO; and […] of H2O.
Test compounds are incubated at room temperature in the presence of RecA protein and DNA prior to addition of ATP. This can be achieved by the preparation of two mixes, as indicated below. Desirably, both a no-DNA and a DNA/DMSO-only (i.e., no test compound) control were included.
The following steps are then performed: (1) Add 7.75 μL of mix 1 to the well of a 384 well plate; (2) Add 0.5 μL of the compound of interest; (3) Incubate at room temperature for 5 minutes; (4) Add 2.5 μL of the ATP mix. Incubate at room temperature for 30 minutes; (5) Add 12.5 μL of Promega Kinase glo plus; (6) Incubate at room temperature for 10 minutes or more; and (7) Measure luminescence of the reaction.
Tested compounds were obtained from Boston University (1205 compounds from CMLD diversity library, available from Dr. Scott Schauss), IndoFine (66 compounds based on flavone structure), ChemdiV (48 compounds known to be ATPase inhibitors and 720 compounds structurally related to CB101 (described, for example, in U.S. Ser. No. 60/662,038), and Asinex. Five (5) tested compounds were bisfiavones and 28 were predicted, based on structural modeling (see, for example, Example 31) to dock with Rec A. Many of the compounds are lipophilic, natural-product-like compounds. Others are flavones, bisflavones, flavonoids, coumarins, and/or heterocyclic compounds.
Percent inhibition is calculated according to the following equation: […]

[2] = system: S. aureus strain S3 (ISP 794); assay: Survival assay, potentiation of ciprofloxacin, S. aureus strain S3; type: cell-based; conditions: 1 μg/mL ciprofloxacin + 25 μg/mL hinokiflavone, 16 hour time point
Text: Cell-based Survival Assay.

S. aureus cells = assay: Mutation/resistance assay, resistance to ciprofloxacin; type: cell-based; conditions: 4×MIC ciprofloxacin with (+) or without (−) 25 μg/mL hinokiflavone
Protocol: This assay measures the rate at which mutant cells arise in the presence of an antibiotic agent. Cells are grown in the presence of antibiotic agent at a concentration above (generally well above, e.g., 4× or 8×) its MIC, and further in the presence or absence of a test agent (that may inhibit or enhance mutation).
Every 24 hours, an aliquot is removed from the culture and is diluted so that the antibiotic agent is no longer present at a concentration above its MIC (e.g., so that the antibiotic agent is present at 0.5×MIC or less). These aliquoted samples are then assayed to determine whether they can grow in the presence of the antibiotic agent. Specifically, when growth is observed in the presence of antibiotic agent at a concentration that is 4×MIC, then resistance is said to have developed. Test compounds can therefore be assayed to assess whether or not they can reduce the incidence of resistance (e.g., by inhibiting mutation).
These aliquoted samples were then assayed to determine whether they can grow in the presence of ciprofloxacin. […]

wildtype E. coli = assay: NAD+/NADH extraction and NAD cycling assay; type: cell-based; conditions: bacteriostatic drug
Text: NAD+/NADH extraction and NAD cycling assay. Protocols for dinucleotide extraction and the cycling assay were based on protocols by Leonardo et al. (M. R. Leonardo et al., J. Bacteriol., 1996, 178: 6013-6018).
Using a modified version (M. R. Leonardo et al., J. Bacteriol., 1996, 178: 6013-6018;) of the NAD^+ cycling assay developed by Bernofsky and Swan (C. Bernofsky et al., Anal. Biochem., 1973, 53: 452-458), the present Applicants monitored NAD^+ and NADH concentrations in wildtype E. coli following treatment with the bactericidal drugs norfloxacin, ampicillin and kanamycin, as well as the bacteriostatic drug spectinomycin. For all three bactericidal drugs, a >5 fold increase in the NAD^+/NADH ratio was observed 0.5 hours after drug addition. This ratio returned to untreated levels by 1 hour. The increase in the NAD^+/NADH ratio was predominantly due to a large relative drop in NADH accompanied by a modest surge in NAD^+. This spike was not observed in an untreated culture, where the ratio of NAD^+/NADH remained tightly bounded. More importantly, treatment with the bacteriostatic drug spectinomycin had no effect on the NAD^+/NADH ratio relative to the untreated culture. A surge in NADH consumption upon exposure to bactericidal antibiotics should induce a burst in superoxide generation via the respiratory chain. […]

T1 sequence (P0A7G6 2-353): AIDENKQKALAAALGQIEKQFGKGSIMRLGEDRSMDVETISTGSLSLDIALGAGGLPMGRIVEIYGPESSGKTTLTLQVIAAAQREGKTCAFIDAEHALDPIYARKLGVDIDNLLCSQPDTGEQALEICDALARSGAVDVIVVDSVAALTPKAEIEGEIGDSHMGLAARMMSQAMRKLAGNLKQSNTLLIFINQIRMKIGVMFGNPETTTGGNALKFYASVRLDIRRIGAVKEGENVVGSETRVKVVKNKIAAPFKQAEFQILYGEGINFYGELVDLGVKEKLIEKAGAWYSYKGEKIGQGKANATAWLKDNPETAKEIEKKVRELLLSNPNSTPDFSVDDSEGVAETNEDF

Structure (SMILES): c1ccc(-c2ccccn2)nc1 [2,2′-dipyridyl]
- hydroxyl radical formation in norfloxacin-treated cultures (E. coli MG1655; addition of 2,2′-dipyridyl (500 μM)): significantly reduced hydroxyl radical formation
- survival of bactericidal drug-treated E. coli following addition of iron chelator (wild-type E. coli): significant increase in survival

Structure (SMILES): CO/N=C1\CN(c2nc3c(cc2F)c(=O)c(C(=O)O)cn3C2CC2)CC1CN (stereo not drawn) [Gemifloxacin]
- activity relative to ciprofloxacin (Streptomyces pneumoniae): 30 fold

Structure (SMILES): CC1(C)S[C@@H]2[C@H](NC(=O)[C@H](N)c3ccccc3)C(=O)N2[C@H]1C(=O)O [ampicillin]
- hydroxyl radical formation (E. coli MG1655): induce hydroxyl radical formation
- SOS activity (LexA-driven GFP expression) [1]: induced the SOS response

Structure (SMILES): O=c1cc(-c2ccc(Oc3c(O)cc4oc(-c5ccc(O)cc5)cc(=O)c4c3O)cc2)oc2cc(O)cc(O)c12 [hinokiflavone]
- IC50 (E. Coli RecA protein): < 1860 nM
- fewer CFUs in the presence of hinokiflavone as compared with its absence [2]: approximately 100 fold
- Number of Wells in which Growth Observed in Presence of Ciprofloxacin at 4x MIC (S. aureus cells; culture grown 0 days): 0
- Number of Wells in which Growth Observed in Presence of Ciprofloxacin at 4x MIC (S. aureus cells; culture grown 1 day): 0
- Number of Wells in which Growth Observed in Presence of Ciprofloxacin at 4x MIC (S. aureus cells; culture grown 5 days): 0
- Number of Wells in which Growth Observed in Presence of Ciprofloxacin at 4x MIC (S. aureus cells; culture grown 6 days): 0
- Number of Wells in which Growth Observed in Presence of Ciprofloxacin at 4x MIC (S. aureus cells; culture grown 7 days): 3
- Number of Wells in which Growth Observed in Presence of Ciprofloxacin at 4x MIC (S. aureus cells; culture grown 10 days): 4

Structure (SMILES): CN[C@@H]1[C@H](O)[C@H](NC)[C@H]2O[C@@]3(O)C(=O)C[C@@H](C)O[C@H]3O[C@@H]2[C@H]1O [spectinomycin]
- hydroxyl radical formation (E. coli MG1655): did not stimulate hydroxyl radical production
- effect on the NAD+/NADH ratio relative to the untreated culture (wildtype E. coli): no effect
